The NIST ThermoML archive (doi:10.1016/j.tca.2018.05.017)
± gives the expanded uncertainty stated by the source.

Settings: Crystal; DTA

Normal melting temperature: 72.20 ± 5 °C
SMILES: CCCCCCCC[NH+](CCCCCCCC)CCCCCCCC.[Cl-] [trioctylammonium chloride]
